Measured values taken from patent publication US20240270821A1, “GIP/GLP1/GCG TRI-RECEPTOR AGONISTS AND USES THEREOF” (priority 2023, published 2024).
pEC50: −log10 of the molar value. Like-named read-outs stand apart in the source and are kept apart here. Starred links: 1 amine or outer side, 2 acyl side, 3 side chain; linkers in the order of their positions; H or OH if unused. Non-standard residues stand in square brackets, D forms with d. Groups on a side chain read outwards from the residue. No end group written: not given here. *: point of attachment. C18 diacid = O=C(O)CCCCCCCCCCCCCCCCC(=O)*; αMePhe(2-F) = C[C@](N)(Cc1ccccc1F)C(=O)O; γGlu = O=C(O)[C@H](CCC(=O)[*:2])N[*:1]; αMe4Pal = C[C@](N)(Cc1ccncc1)C(=O)O; αMeY = C[C@](N)(Cc1ccc(O)cc1)C(=O)O; 4Pal = N[C@@H](Cc1ccncc1)C(=O)O; αMeL = CC(C)C[C@](C)(N)C(=O)O; αMeS = C[C@](N)(CO)C(=O)O; Orn = NCCC[C@H](N)C(=O)O; AEEA = NCCOCCOCC(=O)O; Aib = CC(C)(N)C(=O)O

Legend:
Type in all cases: cell-based
hGIPR [1] = target: T1, hGIPR (Homo sapiens, UniProt P48546); experiment: Functional cAMP activation in the presence of 0.1% casein (no HSA); details: read-out: Relative cAMP EC50, hGIPR;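 also: intracellular cAMP rise after 30 min at 37 °C read by HTRF against a standard curve, scaled between buffer alone (0%) and top control ligand concentration (100%), four-parameter fit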
T1 sequence (P48546 22-466): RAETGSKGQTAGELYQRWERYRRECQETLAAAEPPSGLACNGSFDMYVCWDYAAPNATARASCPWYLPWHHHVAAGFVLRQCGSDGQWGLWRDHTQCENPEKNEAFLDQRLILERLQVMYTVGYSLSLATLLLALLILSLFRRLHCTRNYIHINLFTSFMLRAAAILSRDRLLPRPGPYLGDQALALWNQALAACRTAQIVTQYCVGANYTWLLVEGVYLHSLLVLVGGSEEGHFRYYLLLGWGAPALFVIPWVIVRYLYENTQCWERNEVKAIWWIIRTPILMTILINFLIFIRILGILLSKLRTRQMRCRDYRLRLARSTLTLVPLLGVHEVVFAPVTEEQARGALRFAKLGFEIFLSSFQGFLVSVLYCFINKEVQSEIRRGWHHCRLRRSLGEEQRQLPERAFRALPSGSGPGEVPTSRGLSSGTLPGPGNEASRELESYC

human GcgR = human GcgR (Homo sapiens, UniProt P47871); experiment: Functional cAMP activity in the presence of 1% HSA; details: read-out: cAMP Rel EC50, hGcgR
Sequence of human GcgR (P47871 26-477): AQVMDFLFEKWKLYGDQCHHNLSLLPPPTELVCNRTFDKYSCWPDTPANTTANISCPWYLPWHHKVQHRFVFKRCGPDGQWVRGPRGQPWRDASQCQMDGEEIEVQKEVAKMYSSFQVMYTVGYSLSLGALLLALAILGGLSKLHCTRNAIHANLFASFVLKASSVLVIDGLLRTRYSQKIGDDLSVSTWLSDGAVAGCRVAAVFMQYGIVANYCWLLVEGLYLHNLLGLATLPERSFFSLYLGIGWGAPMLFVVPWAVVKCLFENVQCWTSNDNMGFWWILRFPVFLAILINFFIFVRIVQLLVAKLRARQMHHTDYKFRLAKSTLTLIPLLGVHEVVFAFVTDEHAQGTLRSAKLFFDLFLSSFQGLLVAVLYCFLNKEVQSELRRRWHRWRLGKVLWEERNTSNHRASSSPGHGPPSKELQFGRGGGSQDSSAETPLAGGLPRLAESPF

hGLP-1R [2] = target: T2, hGLP-1R (Homo sapiens, UniProt P43220); experiment: Functional cAMP activation in the presence of 0.1% casein (no HSA); details: read-out: Relative cAMP EC50, hGLP-1R;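 also: intracellular cAMP rise after 30 min at 37 °C read by HTRF, normalized between buffer only (0%) and maximal control ligand (100%), four-parameter variable-slope fit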
T2 sequence (P43220 24-463): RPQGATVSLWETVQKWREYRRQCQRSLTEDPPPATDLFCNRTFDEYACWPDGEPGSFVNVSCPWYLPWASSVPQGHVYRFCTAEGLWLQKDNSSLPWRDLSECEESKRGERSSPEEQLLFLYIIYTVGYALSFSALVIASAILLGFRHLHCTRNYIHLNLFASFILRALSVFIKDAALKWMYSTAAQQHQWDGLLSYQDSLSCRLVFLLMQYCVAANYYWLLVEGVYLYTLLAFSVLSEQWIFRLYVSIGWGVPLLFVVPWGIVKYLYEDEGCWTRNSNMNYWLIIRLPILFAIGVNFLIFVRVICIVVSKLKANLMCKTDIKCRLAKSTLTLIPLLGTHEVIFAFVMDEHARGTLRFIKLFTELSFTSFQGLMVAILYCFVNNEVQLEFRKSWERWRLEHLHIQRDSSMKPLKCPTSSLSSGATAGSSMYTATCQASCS

hGcgR = hGcgR (Homo sapiens, UniProt P47871); experiment: as above; details: read-out: Relative cAMP EC50, hGcgR;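 also: intracellular cAMP rise after 30 min at 37 °C, read by HTRF against a cAMP standard curve, scaled from buffer only (0%) to maximal control ligand response (100%)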
Sequence of hGcgR (P47871 26-477): as the sequence (P47871 26-477) above

hGLP-1R [3] = target: T2, hGLP-1R; experiment: Functional cAMP activity in the presence of 1% HSA; details: read-out: cAMP Rel EC50, hGLP-1R
hGIPR [4] = target: T1, hGIPR; experiment: Functional cAMP activity in the presence of 1% HSA; details: read-out: cAMP Rel EC50, hGIPR
[5] = in the presence of 0.1% casein (no HSA), geometric mean
[6] = 0.1% casein, no HSA, geometric mean

| Compound | pEC50 (hGIPR [1]) | pEC50 (human GcgR) | pEC50 (hGLP-1R [2]) | pEC50 (hGcgR) | pEC50 (hGLP-1R [3]) | pEC50 (hGIPR [4]) | pEC50 (hGIPR [1]; [5]) | pEC50 (hGLP-1R [2]; [5]) | pEC50 (hGcgR; [5]) | pEC50 (hGIPR [1]; [6]) | pEC50 (hGLP-1R [2]; [6]) | pEC50 (hGcgR; [6]) |
| --- | --- | --- | --- | --- | --- | --- | --- | --- | --- | --- | --- | --- |
| H-Y[Aib]QGT[αMePhe(2-F)]TSD[4Pal][αMeS]I[αMeL]LD[Orn]K([γGlu-γGlu-C18 diacid])AQ[Aib][Orn]FI[dE][αMeY]LAEGGPSSGEPPPSGTGE-NH2 [Example 545] | 10.36 | 6.74 | 9.22 | 8.57 | 7.40 | 8.56 |  |  |  |  |  |  |
| H-Y[Aib]QGTFTSD[4Pal]S[Orn][αMeL]LDKK([γGlu-γGlu-C18 diacid])AQ[αMe4Pal]AFIE[αMe4Pal]LIEGGPSSGAPPPSGS-NH2 [Example 952] |  | 6.58 |  |  | 6.36 | 7.78 | 9.78 | 8.31 | 8.62 |  |  |  |
| H-Y[Aib]QGT[αMePhe(2-F)]TSD[4Pal][αMeS]I[αMeL]LD[Orn][Orn]([AEEA-γGlu-C18 diacid])AQ[αMe4Pal]EFI[dE][αMeY]LIEGGPSSGAPPPSGS-NH2 [Example 1211] |  | 6.68 |  |  | 7.48 | 9.31 |  |  |  | 11.23 | 9.56 | 8.84 |
| Y[Aib]QGT[αMePhe(2-F)]TSD[4Pal][αMeS]ILLD[Orn]K([γGlu-γGlu-C18 diacid])AQ[Aib][Orn]FI[dE]YLIEGGPSSGEPPPEGEEE-NH2 [Example 606] | 9.77 | 6.32 | 9.10 | 8.30 | 7.27 | 8.24 |  |  |  |  |  |  |
| H-Y[Aib]QGTFTSDFS[Orn][αMeL]LDKK([AEEA-γGlu-C18 diacid])AQ[Aib]AFIEWLLEGGHSSGAPPPSGH-NH2 [Example 269] |  | 5.96 |  |  | 6.37 | 7.66 | 9.54 | 8.49 | 8.11 |  |  |  |
| CC[C@H](C)[C@H](NC(=O)[C@H](Cc1ccccc1)NC(=O)[C@H](C)NC(=O)[C@](C)(Cc1ccncc1)NC(=O)[C@H](CCC(N)=O)NC(=O)[C@H](C)NC(=O)[C@H](CCCCNC(=O)COCCOCCNC(=O)CC[C@H](NC(=O)CC[C@H](NC(=O)CCCCCCCCCCCCCCCCC(=O)O)C(=O)O)C(=O)O)NC(=O)[C@H](CCCCN)NC(=O)[C@H](CC(=O)O)NC(=O)[C@H](CC(C)C)NC(=O)[C@](C)(CC(C)C)NC(=O)[C@H](CCC(N)=O)NC(=O)[C@H](CO)NC(=O)[C@H](Cc1ccncc1)NC(=O)[C@H](CC(=O)O)NC(=O)[C@H](CO)NC(=O)[C@@H](NC(=O)[C@H](Cc1ccccc1)NC(=O)[C@@H](NC(=O)CNC(=O)[C@H](CCC(N)=O)NC(=O)C(C)(C)NC(=O)[C@@H](N)Cc1ccc(O)cc1)[C@@H](C)O)[C@@H](C)O)C(=O)N[C@@H](CCC(=O)O)C(=O)N[C@@H](Cc1ccc(O)cc1)C(=O)N[C@@H](CC(C)C)C(=O)N[C@H](C(=O)N[C@@H](CCC(=O)O)C(=O)N[C@H](C)C(=O)NCC(=O)N1CCC[C@H]1C(=O)N[C@@H](CO)C(=O)N[C@@H](CO)C(=O)NCC(=O)N[C@@H](C)C(=O)N1CCC[C@H]1C(=O)N1CCC[C@H]1C(=O)N1CCC[C@H]1C(=O)N[C@@H](CO)C(=O)NCC(=O)N[C@@H](CO)C(=O)N[C@@H](CCC(=O)O)C(N)=O)[C@@H](C)CC [Example 1024] |  | 6.12 |  |  | 6.48 | 7.49 | 9.36 | 8.32 | 7.97 |  |  |  |
| H-Y[Aib]QGTFTSD[4Pal]SQ[αMeL]LDKK([γGlu-γGlu-C18 diacid])AQ[αMe4Pal]AFIEYLIAGGESSGAPPPSGSEE-NH2 [Example 963] |  | 6.05 |  |  | 6.67 | 7.60 | 9.61 | 8.75 | 8.24 |  |  |  |
| Y[Aib]QGT[αMePhe(2-F)]TSD[4Pal][αMeS]I[αMeL]LD[Orn]K([AEEA-γGlu-C18 diacid])YQ[αMe4Pal]EFI[dE][αMeY]LVEGGPSSGAPPPSGS-NH2 [Example 767] | 11.10 | 6.68 | 9.52 | 8.95 | 7.25 | 8.82 |  |  |  |  |  |  |
| H-Y[Aib]QGTFTSD[4Pal]S[Orn][αMeL]LD[Orn]K([γGlu-γGlu-γGlu-C18 diacid])AQ[αMe4Pal]AFIEYLIE[Aib]GPSSGAPPPSGSE-NH2 [Example 943] |  | 6.02 |  |  | 6.42 | 7.64 | 9.63 | 8.45 | 8.18 |  |  |  |
| H-Y[Aib]QGT[αMePhe(2-F)]TSD[4Pal]SI[αMeL]LDKK([γGlu-γGlu-C18 diacid])AQ[Aib]AFIEYLEEGGPSSGEPPPSGTGE-NH2 [Example 624] | 10.65 | 6.09 | 9.02 | 8.07 | 7.20 | 8.93 |  |  |  |  |  |  |
